Source: patent US12319655B2, “RAF kinase inhibitors and methods of use thereof” (Deciphera Pharmaceuticals, LLC, priority 2021, dated 2025)

Key:
[1] = target: B-Raf (V600E) (SEQ. ID NO: 4) kinase (Homo sapiens (Human), UniProt P15056, V600E); test: Biochemical Assay for B-Raf (V600E) (1); conditions: Table J, BRAF V600E, assay version (1); read-out: BRAF VE (1) IC50
Method in brief: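 Serially diluted compounds tested against 0.03 nM enzyme with 30.1 nM MEK substrate and 1 mM ATP (Tris pH 7.5, 15 mM MgCl2), ATP use coupled to NADH loss via PK/LDH. A340 monitored continuously 6 h, 30 °C; IC50 fitted (four-parameter) from the 3–4 h rate versus no-compound and known-inhibitor controls.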

[2] = tested on: Miapaca-2 cells; test: MiaPaca-2 Cell Proliferation Assay (1); assay type: cell-based; conditions: Homo sapiens, MIA PaCa-2, single agent, read-out: MiaPaca2 (1) IC50
Method in brief: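 Resazurin was added after compound exposure and incubated 5-6 h, then fluorescence read at 540 nm excitation and 600 nm emission to give IC50.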

[3] = tested on: WM3928 cells; test: WM3928 Cell Proliferation Assay (1); assay type: cell-based
Method in brief: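 IC50 was derived from resazurin fluorescence (ex 540, em 600 nm) after a 6–7 h dye incubation. Before that, cells had 67–72 h of compound exposure at 37 °C, 5% CO2.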

[4] = tested on: H2405 cells; test: H2405 Cell Proliferation Assay (1); assay type: cell-based; conditions: Homo sapiens, NCI-H2405
Method in brief: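 Viability was read by resazurin reduction (ex 540 nm, em 600 nm; 5-6 h with 40 μL of 440 μM stock) after 67-72 h compound exposure at 37 °C.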

B-Raf (V600E) (SEQ. ID NO: 4) kinase, sequence (P15056 416-766 V600E): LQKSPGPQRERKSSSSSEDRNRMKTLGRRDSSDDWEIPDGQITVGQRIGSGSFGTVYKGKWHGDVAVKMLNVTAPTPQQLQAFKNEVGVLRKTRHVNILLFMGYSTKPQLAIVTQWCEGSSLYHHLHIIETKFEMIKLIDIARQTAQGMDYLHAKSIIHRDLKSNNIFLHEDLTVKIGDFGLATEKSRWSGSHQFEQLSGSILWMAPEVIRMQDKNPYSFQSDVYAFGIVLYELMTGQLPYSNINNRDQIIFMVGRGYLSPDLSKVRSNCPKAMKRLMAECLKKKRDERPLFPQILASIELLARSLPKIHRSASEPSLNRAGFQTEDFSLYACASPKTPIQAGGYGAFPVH

Structure (SMILES) | IC50 [1] [µM] | IC50 [2] [µM] | IC50 [3] [µM] | IC50 [4] [µM]
CC(=O)Nc1cc(-c2cc(-c3cc(NC(=O)c4ccnc(C(F)(F)F)c4)ccc3C)cn(C)c2=O)ccn1 [Example 21, N-(3-(2′-acetamido-1-methyl-2-oxo-1,2-dihydro-[3,4′-bipyridin]-5-yl)-4-methylphenyl)-2-(trifluoromethyl)isonicotinamide] | ≤ 0.1 | 1 to 10 | – | –
Cc1ccc(NC(=O)c2ccnc(C(C)(C)C#N)c2)cc1-c1nccc(-c2ccnc3c2CC(=O)N3)n1 [Example 22] | ≤ 0.1 | 1 to 10 | ≤ 0.1 | –
CC(=O)Nc1cc(-c2nccc(-c3cc(NC(=O)c4ccnc(C(F)(F)F)c4)ccc3C)n2)ccn1 [Example 24] | ≤ 0.1 | 1 to 10 | ≤ 0.1 | –
CNC(=O)c1cc(-c2nccc(-c3cc(NC(=O)c4ccnc(C(F)(F)F)c4)ccc3C)n2)ccn1 [Example 25] | ≤ 0.1 | 1 to 10 | 0.5 to 1 | –
CC(=O)Nc1cc(-c2cc(-c3cc(C(=O)Nc4ccnc(C(F)(F)F)c4)ccc3C)ccn2)ccn1 [Example 26] | ≤ 0.1 | 1 to 10 | – | –
CC(=O)Nc1cc(-c2cccc(-c3cc(NC(=O)c4ccnc(C(F)(F)F)c4)ccc3C)c2)ccn1 [Example 28] | ≤ 0.1 | 1 to 10 | – | –
CNC(=O)c1cc(-c2cc(-c3cc(C(=O)Nc4ccnc(C(F)(F)F)c4)ccc3C)ccn2)ccn1 [Example 31] | ≤ 0.1 | 1 to 10 | – | –
Cc1ncc(NC(=O)c2cn(C(C)C)nn2)cc1-c1nccc(-c2ccnc(NC(=O)C3CC3)c2)n1 [Example 285] | ≤ 0.1 | – | 1 to 10 | 1 to 10
Cc1ncc(NC(=O)c2cnnc(C3CC3)c2)cc1-c1nccc(-c2ccnc(NC(=O)C3CC3)c2)n1 [Example 294] | ≤ 0.1 | – | – | 0.1 to 0.5
COC(=O)Nc1cc(-c2cc(-c3cc(NC(=O)c4ccnc(C(C)(C)F)c4)c(F)cc3C)ccn2)ccn1 [Example 302] | ≤ 0.1 | – | ≤ 0.1 | 0.1 to 0.5
COC(=O)Nc1cc(-c2nccc(-c3cc(NC(=O)c4ccnc(C(C)(C)C#N)c4)c(F)cc3C)n2)ccn1 [Example 303] | ≤ 0.1 | – | ≤ 0.1 | ≤ 0.1
COC(=O)Nc1cc(-c2cnnc(-c3cc(NC(=O)c4ccnc(C(C)(C)C#N)c4)cnc3C)c2)ccn1 [Example 306] | 0.1 to 0.5 | 1 to 10 | – | 1 to 10
CNC(=O)c1cc(-c2cnnc(-c3cc(NC(=O)c4ccnc(C(C)(C)F)c4)cnc3C)c2)ccn1 [Example 309] | 0.1 to 0.5 | 1 to 10 | – | 1 to 10
Cc1ncc(NC(=O)c2ccnc(C(C)(C)F)c2)cc1-c1cc(-c2ccnc(NC(=O)C3CC3)c2)cnn1 [Example 310] | ≤ 0.1 | 1 to 10 | – | 0.1 to 0.5
COC(=O)Nc1cc(-c2cnnc(-c3cc(NC(=O)c4cccc(C(C)(C)C#N)c4)ccc3C)c2)ccn1 [Example 311] | ≤ 0.1 | – | – | 0.1 to 0.5
COC(=O)Nc1cc(-c2cc(-c3cc(NC(=O)c4ccnc(C(F)F)c4)cnc3C)ccn2)ccn1 [Example 313] | 1 to 10 | – | 1 to 10 | 0.1 to 0.5
CNC(=O)c1cc(-c2cnnc(-c3cc(NC(=O)c4ccnc(C(C)(C)C#N)c4)ccc3C)c2)ccn1 [Example 314] | ≤ 0.1 | – | 0.5 to 1 | 0.5 to 1
Cc1ccc(NC(=O)c2ccnc(C(C)(C)F)c2)cc1-c1cc(-c2ccnc(NC(=O)C3CC3)c2)cnn1 [Example 315] | ≤ 0.1 | – | ≤ 0.1 | ≤ 0.1
CNC(=O)c1cc(-c2cnnc(-c3cc(NC(=O)c4ccnc(C(C)(C)C#N)c4)cnc3C)c2)ccn1 [Example 316] | 0.1 to 0.5 | – | – | 1 to 10
CNC(=O)c1cc(-c2cnnc(-c3cc(NC(=O)c4ccnc(C5CC5)c4)cnc3C)c2)ccn1 [Example 317] | 1 to 10 | – | – | 1 to 10
CNC(=O)c1cc(-c2cnnc(-c3cc(NC(=O)c4ccnc(C(F)(F)F)c4)cnc3C)c2)ccn1 [Example 318] | 1 to 10 | – | – | 1 to 10
COC(C)(C)c1cc(C(=O)Nc2ccc(C)c(-c3cc(-c4ccnc(NC(=O)C5CC5)c4)cnn3)c2)ccn1 [Example 319] | ≤ 0.1 | – | – | ≤ 0.1
Cc1ccc(NC(=O)c2cn(C(C)C)nn2)cc1-c1cc(-c2ccnc(NC(=O)C3CC3)c2)cnn1 [Example 320] | 0.1 to 0.5 | – | 1 to 10 | 1 to 10
Cc1ccc(NC(=O)c2cnn(C(C)(C)C)c2)cc1-c1cc(-c2ccnc(NC(=O)C3CC3)c2)cnn1 [Example 321] | ≤ 0.1 | – | 0.1 to 0.5 | 0.1 to 0.5
CNC(=O)c1cc(-c2cnnc(-c3cc(NC(=O)c4ccc(Cl)c(OC)c4)cnc3C)c2)ccn1 [Example 322] | 1 to 10 | – | – | 1 to 10
COC(=O)Nc1cc(-c2cc(-c3cc(NC(=O)c4ccnc(C(C)(C)F)c4)cnc3C)ccn2)ccn1 [Example 323] | ≤ 0.1 | – | 0.1 to 0.5 | 0.1 to 0.5

Structure (SMILES) | IC50 [1] [µM] | IC50 [2] [µM] | IC50 [3] [µM] | IC50 [4] [µM]
CNC(=O)c1cc(-c2cnnc(-c3cc(NC(=O)c4ccnc(C(C)(C)F)c4)ccc3C)c2)ccn1 [Example 325] | ≤ 0.1 | – | 0.5 to 1 | 0.1 to 0.5
CNC(=O)c1cc(-c2cnnc(-c3cc(NC(=O)c4ccnc(C5CC5)c4)ccc3C)c2)ccn1 [Example 326] | 0.1 to 0.5 | – | 1 to 10 | 1 to 10
CNC(=O)c1cc(-c2cnnc(-c3cc(NC(=O)c4ccnc(C(F)F)c4)ccc3C)c2)ccn1 [Example 327] | 0.5 to 1 | – | 1 to 10 | 1 to 10
CNC(=O)c1cc(-c2cnnc(-c3cc(NC(=O)c4ccnc(C(C)(C)OC)c4)ccc3C)c2)ccn1 [Example 328] | ≤ 0.1 | – | 1 to 10 | 0.1 to 0.5
CNC(=O)c1cc(-c2cnnc(-c3cc(NC(=O)c4ccc(F)c(C(F)(F)F)c4)ccc3C)c2)ccn1 [Example 329] | ≤ 0.1 | – | 1 to 10 | 0.5 to 1
CNC(=O)c1cc(-c2cnnc(-c3cc(NC(=O)c4ccnc(C(F)F)c4)cnc3C)c2)ccn1 [Example 330] | 1 to 10 | – | – | 1 to 10
Cc1ccc(NC(=O)c2ccnc(C3CC3)c2)cc1-c1cc(-c2ccnc(NC(=O)C3CC3)c2)cnn1 [Example 331] | ≤ 0.1 | – | 0.5 to 1 | 0.1 to 0.5
Cc1ccc(NC(=O)c2ccnc(S(C)(=O)=O)c2)cc1-c1cc(-c2ccnc(NC(=O)C3CC3)c2)cnn1 [Example 332] | ≤ 0.1 | – | 1 to 10 | 1 to 10
CNC(=O)c1cc(-c2cnnc(-c3cc(NC(=O)CCC(C)(C)C#N)cnc3C)c2)ccn1 [Example 333] | 1 to 10 | – | – | 1 to 10
CO[C@H]1CC[C@H](C(=O)Nc2ccc(C)c(-c3ccnc(-c4ccnc(NC(=O)C5CC5)c4)n3)c2)CC1 [Example 341] | ≤ 0.1 | – | 1 to 10 | –
Cc1ccc(NC(=O)C2CN(C)CCO2)cc1-c1cccc(-c2cc(NC(=O)C3CC3)ncn2)c1 (stereo not drawn) [Example 346] | ≤ 0.1 | – | – | 1 to 10
CO[C@H]1CC[C@H](C(=O)Nc2cnc(C)c(-c3cccc(-c4cc(NC(=O)C5CC5)ncn4)c3)c2)CC1 [Example 347] | ≤ 0.1 | – | – | 1 to 10
CNC(=O)c1cc(-c2cc(-c3cc(NC(=O)CCC(C)(C)C#N)ccc3C)ccn2)ccn1 [Example 357] | 0.5 to 1 | – | – | 1 to 10
CNC(=O)c1cc(-c2cc(-c3cc(NC(=O)COCC4CC4)ccc3C)ccn2)ccn1 [Example 358] | 0.5 to 1 | – | 1 to 10 | 1 to 10
COC(=O)Nc1cc(-c2cnnc(-c3cc(NC(=O)CN4CCCC4)cnc3C)c2)ccn1 [Example 359] | 1 to 10 | – | – | 1 to 10
COC(=O)Nc1cc(-c2cnnc(-c3cc(NC(=O)COCC4CC4)ccc3C)c2)ccn1 [Example 360] | 1 to 10 | – | 1 to 10 | 1 to 10
COC(=O)Nc1cc(-c2cnnc(-c3cc(NC(=O)c4ccnc(C(C)(C)F)c4)cnc3C)c2)ccn1 [Example 361] | 0.1 to 0.5 | – | – | 0.5 to 1
COC(=O)Nc1cc(-c2cnnc(-c3cc(NC(=O)c4ccnc(C5CC5)c4)cnc3C)c2)ccn1 [Example 362] | 1 to 10 | – | – | 1 to 10
COC(=O)Nc1cc(-c2cnnc(-c3cc(NC(=O)c4ccnc(C(F)F)c4)cnc3C)c2)ccn1 [Example 363] | 1 to 10 | – | – | 1 to 10
COCCNC(=O)c1cc(-c2cnnc(-c3cc(NC(=O)c4cccc(C5CC5)c4)ccc3C)c2)ccn1 [Example 365] | 0.5 to 1 | – | – | 1 to 10
CNC(=O)c1cc(-c2cnnc(-c3cc(NC(=O)c4cn(C(C)(C)C)nn4)ccc3C)c2)ccn1 [Example 366] | 0.1 to 0.5 | – | – | 1 to 10
Cc1ccc(NC(=O)c2cc(C(C)(C)C)no2)cc1-c1cc(-c2ccnc(NC(=O)C3CC3)c2)cnn1 [Example 367] | ≤ 0.1 | – | – | 0.1 to 0.5
COC(=O)Nc1cc(-c2cnnc(-c3cc(NC(=O)CC4CCCC4)cnc3C)c2)ccn1 [Example 368] | 1 to 10 | – | – | 1 to 10
Cc1ccc(NC(=O)c2ccnc(C(C)(C)C#N)c2)cc1-c1cc(-c2ccnc3[nH]ccc23)cnn1 [Example 369] | ≤ 0.1 | – | – | 0.5 to 1
Cc1ccc(NC(=O)c2ccnc(C(C)(C)C#N)c2)cc1-c1cc(-c2ccnc(C(=O)NC3CC3)c2)cnn1 [Example 372] | 0.1 to 0.5 | – | – | 1 to 10
